IC50 data for 92 molecules are collected here from ChEMBL document CHEMBL5604062, “ASAP - ZIKV NS2B-NS3 protease fluorescence dose response” (2024).

The target in the assay is Nonstructural protein 3 (Zika virus, UniProt A0A024AXB9). In words: Functional biochemical assay to identify treatments for viral infectious disease that targets Zika NS2B-NS3 protease. Utilizing a direct enzyme activity measurement method, reading the fluorescence intensity is used to characterize the relative potency of inhibitors as IC50. Set-up: species or system PRVABC59.
Chain of Nonstructural protein 3 (A0A024AXB9 whole entry): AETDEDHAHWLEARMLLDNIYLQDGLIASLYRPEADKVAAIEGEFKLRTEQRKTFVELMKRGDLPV

On to `NCc1ccc(-c2ncc(OCC3CCNCC3)nc2-c2ccc(-c3ccoc3)cc2)cc1`, for which the IC50 is over 99.5 µM. Consider `NCc1ccc(-c2ncc(OCC3CCNCC3)nc2-c2ccc(C3CCOCC3)cc2)cc1`, for which the half-inhibitory concentration (IC50) was over 99.5 µM. The result for `Cc1cc(Cl)c(C)c(C(=O)O)c1NS(=O)(=O)c1ccc(Oc2ccccc2Cl)cc1` reads 93.8 µM. The result for `NCc1cccc(NC(=O)[C@H](NC(=O)OCc2ccccc2)C(C2CCC2)C2CCC2)c1` reads over 99.5 µM; that for `CN1CCN(C2CN(C(=O)c3cc(Br)cc(C=O)c3)C2)CC1`, over 99.5 µM. As to `O=C(O)c1cc(Cl)ccc1CS(=O)(=O)c1ccc(Oc2ccccc2Cl)cc1`, the IC50 was over 99.5 µM.

Regarding `CCn1cc(-c2ccc(OC)c(C)c2)nc(N2CC[C@@H](CO)C2)c1=O`, the IC50 is over 99.5 µM.

The molecule `CC(C)(C)OC(=O)NCc1cccc(NC(=O)[C@@H](NC(=O)OCc2ccccc2)c2ccc(O)cc2)c1` gave an IC50 of over 99.5 µM. Molecule `Cc1cc(C(=O)O)c(NS(=O)(=O)c2ccc(Oc3ccccc3Cl)cc2)cc1F` came in with an IC50 of 21.2 µM. The result for `O=S(=O)(Nc1ccc(Cl)cc1CO)c1ccc(Oc2ccccc2Cl)cc1` reads over 99.5 µM; that for `CN1CCN(C2CCN(C(=O)c3cc(C=O)n(C)c3)CC2)CC1`, over 99.5 µM; that for `CCn1cc(-c2ccccc2)nc(N2CC[C@@H](CO)C2)c1=O`, over 99.5 µM. As for `Cn1cc(C(=O)O)c(NS(=O)(=O)c2ccc(Oc3ccccc3Cl)cc2)n1`, the figure is over 99.5 µM; as for `Cn1nccc1-c1ccc([C@@H](NC(=O)OCc2ccccc2)C(=O)Nc2cccc(CN)c2)cc1`, over 99.5 µM; as for `NCc1cccc(NC(=O)[C@@H](NC(=O)OCc2ccccc2)c2c(F)cccc2F)c1`, over 99.5 µM. The result for `c1ccc2c(CN3CCC(c4nn[nH]n4)CC3)c[nH]c2c1` reads over 99.5 µM. In turn, `Cc1cnn(-c2cc(C(=O)O)c(NS(=O)(=O)c3ccc(Oc4ccccc4Cl)cc3)cc2F)c1` had an IC50 of 10.6 µM. As for `COC(=O)c1cc(Cl)ccc1NS(=O)(=O)c1ccc(O)cc1`, the figure is over 99.5 µM; as for `CCn1cc(Cl)nc(N2CC[C@@H](CO)C2)c1=O`, over 99.5 µM. As for `NC(=O)[C@H](c1c[nH]c2ccccc12)N1CCC(c2cnc3ccc[nH]c2-3)CC1`, the figure is 96.5 µM; as for `CCn1cc(-c2cnn(C)n2)nc(N2CC[C@@H](CO)C2)c1=O`, over 99.5 µM. The result for `O=C(O)c1cc(Cl)cc(NS(=O)(=O)c2ccc(Oc3ccccc3Cl)cc2)c1` reads over 99.5 µM.

The molecule `O=C(O)c1cc(OC2CCOCC2)c(F)cc1NS(=O)(=O)c1ccc(Oc2ccccc2Cl)cc1` showed an IC50 of 37 µM.

Consider `OC[C@H]1CCN(c2cncc(N3CCOCC3)n2)C1`, for which the IC50 was over 99.5 µM. The result for `CCOc1cccc(N2CC[C@@H](CO)C2)c1` reads over 99.5 µM; that for `CCn1cc(-c2cccc(-n3cccn3)c2)nc(N2CC[C@@H](CO)C2)c1=O`, over 99.5 µM. In turn, `NCc1cccc(NC(=O)[C@@H](NC(=O)OCc2ccccc2)c2cccc(Br)c2)c1` had an IC50 of 64.4 µM.

Consider `N#Cc1cc(F)cc(N2CC[C@H](CO)C2)c1`, for which the IC50 is over 99.5 µM. As for `CCn1cc(-c2cccc(OC)c2F)nc(N2CC[C@@H](CO)C2)c1=O`, the figure is over 99.5 µM. The result for `CC(C)Oc1cncc(N2CC[C@@H](CO)C2)c1` reads over 99.5 µM; that for `O=C(O)c1cc(Cl)c(Cl)cc1NS(=O)(=O)c1ccc(Oc2ccccc2Cl)cc1`, 9.06 µM; that for `CCn1cc(-c2cnn(-c3ccccc3)c2)nc(N2CC[C@@H](CO)C2)c1=O`, over 99.5 µM. `O[C@@H]1CN(Cc2c[nH]c3ccccc23)C[C@H]1c1c[nH]c2ccccc12` came in with an IC50 of over 99.5 µM. As for `Cc1cnc(Oc2ccc(S(=O)(=O)Nc3ccc(Cl)cc3C(=O)O)cc2)cn1`, the figure is over 99.5 µM; as for `CCn1cc(-c2ccnc(C)c2)nc(N2CC[C@@H](CO)C2)c1=O`, over 99.5 µM.

`NCc1cccc(NC(=O)[C@H](NC(=O)OCc2ccccc2)c2ccc(OCc3ccccc3)cc2)c1`: the IC50 is 6.93 µM.

`O=C(O)c1cc(Cl)ccc1NS(=O)(=O)c1ccc(Oc2ccccc2Cl)nc1` displayed an IC50 of over 99.5 µM. `O=C(O)c1cc(Cl)c(F)cc1NS(=O)(=O)c1ccc(Oc2ccccc2Cl)cc1` returned an IC50 of 10.4 µM. The molecule `Cc1cc(C)c(C(=O)N2C[C@H]3CN(C)CC[C@@]3(CO)C2)cc1C=O` had an IC50 of over 99.5 µM. For `O=C(O)c1cc(Oc2ccc(F)cc2)c(F)cc1NS(=O)(=O)c1ccc(Oc2ccccc2Cl)cc1`, the IC50 was 3.67 µM.

Regarding `COC(=O)c1cc(Cl)ccc1NS(=O)(=O)c1ccc(Br)cc1`, the IC50 is over 99.5 µM.

The molecule `CN(C)C[C@@]1(O)CCN(C(=O)c2cc(C=O)c[nH]2)C1` registered a half-inhibitory concentration (IC50) of over 99.5 µM. Take `CC(C)CNC(=O)c1cc(Cl)c(F)cc1NS(=O)(=O)c1ccc(Oc2ccccc2Cl)cc1`: the IC50 came to 7.81 µM. The molecule `O=C(O)c1c(NS(=O)(=O)c2ccc(Oc3ccccc3Cl)cc2)ccc(Cl)c1F` displayed an IC50 of 54.1 µM. This IC50 is about 6.9-fold higher than that of the molecule before.

In turn, `COC(=O)c1cc(Cl)ccc1NS(=O)(=O)c1ccc(Oc2ccccc2Cl)nc1` displayed an IC50 of over 99.5 µM. On to `COC(=O)[C@@H]1CC2(CC[C@@H]1NS(=O)(=O)c1ccc(Oc3ccccc3Cl)cc1)CC2`, for which the half-inhibitory concentration (IC50) was over 99.5 µM.

Molecule `CCn1cc(C(=O)NC)nc(N2CC[C@@H](CO)C2)c1=O` had an IC50 of over 99.5 µM. Regarding `NCc1cccc(CNC(=O)[C@H](NC(=O)OCc2ccccc2)c2ccc(OCc3ccccc3)cc2)c1`, the concentration for half-maximal inhibition (IC50) stood at 13.1 µM. As for `CCn1cc(C#N)nc(N2CC[C@@H](CO)C2)c1=O`, the figure is over 99.5 µM. `NCc1cccc(N2CCN(C(=O)OCc3ccccc3)[C@H](c3ccc(OCc4ccccc4)cc3)C2=O)c1` displayed an IC50 of 21 µM. The result for `NCc1cccc(NC(=O)[C@]2(NC(=O)OCc3ccccc3)CCOc3ccccc32)c1` reads over 99.5 µM; that for `O=C(O)c1cc(Cl)ccc1NS(=O)(=O)c1ccc(N[C@H]2CCOC2)nc1`, over 99.5 µM; that for `COc1cc(Cl)cc(C(=O)O)c1NS(=O)(=O)c1ccc(Oc2ccccc2Cl)cc1`, 43.6 µM.

`NCc1cc(Cl)ccc1NS(=O)(=O)c1ccc(Oc2ccccc2Cl)cc1` yielded an IC50 of over 99.5 µM.

On to `O=C(NCC1CC1)c1cc(Cl)cc(NS(=O)(=O)c2ccc(Oc3ccccc3Cl)cc2)c1`, for which half-maximal inhibition (IC50) required 49.9 µM. In turn, `NCc1cccc(NC(=O)c2cc(Cl)cc(NC(=O)OCc3ccccc3)c2)c1` registered an IC50 of 4.79 µM. Against the preceding molecule, the IC50 is about 10-fold lower. Consider `NCc1cccc(NC(=O)CN2CCN(C(=O)OCc3ccccc3)CC2)c1`, for which the IC50 was over 99.5 µM. The result for `O=C(NCC(F)(F)F)c1cc(Cl)c(F)cc1NS(=O)(=O)c1ccc(Oc2ccccc2Cl)cc1` reads 10.6 µM; that for `CCn1cc(-c2ccc3nn(C)cc3c2)nc(N2CC[C@@H](CO)C2)c1=O`, over 99.5 µM; that for `NCc1cccc(NC(=O)CN(C(=O)OCc2ccccc2)c2ccc(OCc3ccccc3)cc2)c1`, 14.5 µM. The result for `CCn1cc(-c2cc(F)ccc2C)nc(N2CC[C@@H](CO)C2)c1=O` reads over 99.5 µM. As for `O=C(NCc1cc(Cl)ccc1NS(=O)(=O)c1ccc(Oc2ccccc2Cl)cc1)C1CC1`, the figure is over 99.5 µM; as for `NCc1cccc(NC(=O)[C@H](NC(=O)OCc2ccccc2)C2CCCCC2)c1`, over 99.5 µM. With `CN(c1ncnc(-c2ccsc2C=O)n1)C1CCNCC1`, the IC50 turned out to be 98.4 µM. This lies in the double-digit micromolar range.

For the molecule `O=C(O)c1ccsc1NS(=O)(=O)c1ccc(Oc2ccccc2Cl)cc1`, the IC50 stood at 27.8 µM. Against the preceding molecule, the IC50 is about 3.5-fold lower.

`NCc1cccc(NC(=O)c2cc(OCc3ccccc3)ccc2CNC(=O)OCc2ccccc2)c1`: the midpoint of inhibition, the IC50, lay at 21.1 µM. In the case of `O=C(O)c1cc(Cl)ccc1S(=O)(=O)Nc1ccc(Oc2ccccc2Cl)cc1`, the midpoint of inhibition, the IC50, lay at 48 µM. Turning to `O=C(O)c1cc(F)c(F)cc1NS(=O)(=O)c1ccc(Oc2ccccc2Cl)cc1`, the IC50 was found to be 31.9 µM. On to `Cc1cc(-c2ccc([C@@H](NC(=O)OCc3ccccc3)C(=O)Nc3cccc(CN)c3)cc2)cs1`, for which the IC50 came out at 3.94 µM. As to `C[C@@H](NC(=O)c1ccc2[nH]cc(C=O)c2c1)C1=CCN(C)CC1`, the IC50 is over 99.5 µM. The result for `CCc1ccc(-c2cn(CC)c(=O)c(N3CC[C@@H](CO)C3)n2)s1` reads over 99.5 µM; that for `O=C(O)c1nscc1NS(=O)(=O)c1ccc(Oc2ccccc2Cl)cc1`, over 99.5 µM; that for `OC[C@H]1CCN(c2ccnc(C(F)F)c2)C1`, over 99.5 µM. The molecule `C[C@H]1CN(C(=O)Cc2ccc(C=O)[nH]2)CCN1C1CCCC1` returned an IC50 of over 99.5 µM. Regarding `CCn1cc(-c2cnccc2C)nc(N2CC[C@@H](CO)C2)c1=O`, the IC50 is over 99.5 µM. As for `CCn1cc(-c2cnc3ccnn3c2)nc(N2CC[C@@H](CO)C2)c1=O`, the figure is over 99.5 µM; as for `O=C(O)c1cscc1NS(=O)(=O)c1ccc(Oc2ccccc2Cl)cc1`, over 99.5 µM. In turn, `CCn1ccnc(N2C[C@@H](OC(=O)OC)[C@H](c3c[nH]c4ccccc34)C2)c1=O` registered an IC50 of over 99.5 µM.

`Cc1cccc([C@@H](NC(=O)OCc2ccccc2)C(=O)Nc2cccc(CN)c2)n1` registered an IC50 of over 99.5 µM. As for `CC1(C)CCC([C@@H](NC(=O)OCc2ccccc2)C(=O)Nc2cccc(CN)c2)CC1`, the figure is 94.3 µM; as for `Cn1cc(CN2CCC(c3c[nH]c4cccnc34)CC2)c2ccccc21`, over 99.5 µM; as for `O=C(O)CN(c1ccc(Cl)cc1)S(=O)(=O)c1ccc(Oc2ccccc2Cl)cc1`, over 99.5 µM. The result for `CCn1nccc1-c1cn(CC)c(=O)c(N2CC[C@@H](CO)C2)n1` reads over 99.5 µM; that for `O=Cc1ccc(CC(=O)N2C[C@@H](O)[C@H](N3CCOCC3)C2)cc1`, over 99.5 µM; that for `Cc1nccnc1Oc1ccc(S(=O)(=O)Nc2ccc(Cl)cc2C(=O)O)cc1`, over 99.5 µM. Molecule `NCc1cccc(NC(=O)C2(CNC(=O)OCc3ccccc3)CCCC2)c1` registered an IC50 of over 99.5 µM.

As for `O=C(O)c1cc(Cl)ccc1NS(=O)(=O)c1ccc(OCc2ncccn2)cc1`, the IC50 is over 99.5 µM. The result for `Cc1cc(C(=O)N[C@@H]2CC[C@@H]3CN(C)C[C@@H]32)sc1C=O` reads over 99.5 µM.

As to `NC(=O)c1ccc(N2CC[C@@H](CO)C2)cc1`, the IC50 is over 99.5 µM. The molecule `O=C(NCC1CC1)[C@H]1CCCC[C@H]1NS(=O)(=O)c1ccc(Oc2ccccc2Cl)cc1` had an IC50 of over 99.5 µM.

For the molecule `OC[C@H]1CCN(c2cnc3ccccc3n2)C1`, the IC50 was over 99.5 µM. The result for `CCn1ccnc(N2C[C@H](c3c[nH]c4ccccc34)[C@H](OC(C)=O)C2)c1=O` reads over 99.5 µM.
